Active and inactive are the calls of the source. The calls are words filed in the database; no cut-off is given here.
Legend:
Right cardiac atrium [1] = test: Reversible negative ionotropic activity in electrically-paced Cavia porcellus (guinea pig) right atrium incubated for few seconds followed by compound washout measured after 3 hr by isometric transducer analysis in absence of benzalkonium/prazosin; format: functional, tissue-based
Left cardiac atrium [2] = test: Negative […] activity in electrically-paced Cavia porcellus (guinea pig) left atrium measured immediately by isometric transducer analysis in presence of benzalkonium/prazosin relative to arecaidine propargyl ester; format: functional
Right cardiac atrium [3] = test: Negative […] activity in electrically-paced Cavia porcellus (guinea pig) right atrium assessed as effect on rate measured immediately by isometric transducer analysis in presence of benzalkonium/prazosin relative to arecaidine propargyl ester; format: functional
Right cardiac atrium [4] = test: Negative […] activity in electrically-paced Cavia porcellus (guinea pig) right atrium assessed as effect on rate measured immediately by isometric transducer analysis in absence of benzalkonium/prazosin; format: functional, tissue-based
Left cardiac atrium [5] = test: Negative […] activity in electrically-paced Cavia porcellus (guinea pig) left atrium measured immediately by isometric transducer analysis in presence of prazosin; format: functional, tissue-based
Left cardiac atrium [6] = test: Negative […] activity in electrically-paced Cavia porcellus (guinea pig) left atrium measured immediately by isometric transducer analysis in presence of bupranolol; format: functional, tissue-based
Left cardiac atrium [7] = test: Negative […] activity in electrically-paced Cavia porcellus (guinea pig) left atrium measured immediately by isometric transducer analysis in presence of naloxane; format: functional, tissue-based
Left cardiac atrium [8] = test: Negative […] activity in electrically-paced Cavia porcellus (guinea pig) left atrium measured immediately by isometric transducer analysis in presence of methoctramine; format: functional, tissue-based
Right cardiac atrium [9] = test: Negative […] activity in electrically-paced Cavia porcellus (guinea pig) right atrium measured immediately by isometric transducer analysis in presence of 4-DAMP mustard; format: functional, tissue-based
Right cardiac atrium [10] = test: Negative […] activity in electrically-paced Cavia porcellus (guinea pig) right atrium measured immediately by isometric transducer analysis in presence of AM 251; format: functional, tissue-based
Right cardiac atrium [11] = test: Negative ionotropic activity in electrically-paced Cavia porcellus (guinea pig) right atrium measured immediately by isometric transducer analysis in presence of dihydroergocristine; format: functional, tissue-based
Right cardiac atrium [12] = test: Negative ionotropic activity in electrically-paced Cavia porcellus (guinea pig) right atrium assessed as effect on force measured immediately by isometric transducer analysis in presence of benzalkonium/prazosin relative to arecaidine propargyl ester; format: functional
Right cardiac atrium [13] = test: Negative ionotropic activity in electrically-paced Cavia porcellus (guinea pig) right atrium assessed as effect on force measured immediately by isometric transducer analysis in presence of benzalkonium/prazosin; format: functional, tissue-based
Right cardiac atrium [14] = test: Negative ionotropic activity in electrically-paced Cavia porcellus (guinea pig) right atrium assessed as effect on force measured immediately by isometric transducer analysis in absence of benzalkonium/prazosin; format: functional, tissue-based

With `COc1ccccc1CN1CCC(C2CCN(C(=O)CCCCCCC(=O)N3CCC(C4CCN(Cc5ccccc5OC)CC4)CC3)CC2)CC1` [PIPERTRAMINE AMIDE] the Activity (Right cardiac atrium [1]) was “Active”, the Efficacy (Left cardiac atrium [2]) was 60% and the Efficacy (Right cardiac atrium [3]) was 42%. For the same compound, the EC50 (Right cardiac atrium [4]) was 0.977 nM, the Activity (Left cardiac atrium [5]) was “Active” and the Activity (Left cardiac atrium [6]) was “Active”. For the same compound, the Activity (Left cardiac atrium [7]) was “Active”, the Activity (Left cardiac atrium [8]) was “inactive” and the Activity (Right cardiac atrium [9]) was “inactive”. For the same compound, the Activity (Right cardiac atrium [10]) was “Active”, the Activity (Right cardiac atrium [11]) was “Active” and the Efficacy (Right cardiac atrium [12]) was 81%. For the same compound, the EC50 (Right cardiac atrium [13]) was 2.29 nM and the EC50 (Right cardiac atrium [14]) was 1.55 nM.

— ChEMBL document CHEMBL3044753, “Polyamines May Modulate Both G Protein-Coupled Receptors and G Proteins” (Med Chem Res, 2004)
